Measured values as given in article PMC4503722, “Novel Phenotypic Outcomes Identified for a Public Collection of Approved Drugs from a Publicly Accessible Panel of Assays” (PLoS ONE, 2015).
Where two headings read alike, the source gives them in different places.

Columns and labels:
[1] = test system: endothelial tube formation in co-cultures of ECFCs and ADSCs treated with VEGF; test: cells; assay type: cell-based, human; conditions: for IC50: read-out: VEGF_ADSC\ECFC Angio CD31 TubeArea summarized IC50
DLD-1 = test: cells; assay type: cell-based; conditions: for IC50: read-out: Basal_Viability ATP DLD-1 summarized IC50
SW480 = test: cells; assay type: cell-based; conditions: for IC50: read-out: Basal_Viability ATP SW480 summarized IC50
HCT116 = test: cells; assay type: cell-based; conditions: for IC50: read-out: Basal_Viability ATP HCT116 summarized IC50
Colo320 = test: cells; assay type: cell-based; conditions: for IC50: read-out: Basal_Viability ATP Colo 320 summarized IC50
HT-29 = test: cells; assay type: cell-based; conditions: for IC50: read-out: Basal_Viability ATP HT-29 summarized IC50
RKO = test: cells; assay type: cell-based; conditions: for IC50: read-out: Basal_Viability ATP RKO summarized IC50
SNU-C1 = test: cells; assay type: cell-based; conditions: for IC50: read-out: Basal_Viability ATP SNU-C1 summarized IC50
[2] = test system: ECFC/ADSC co-culture cell nuclei number; conditions: for IC50: read-out: VEGF_ADSC\ECFC Angio Hoechst NucArea summarized IC50
HeLa cells = test: cells; assay type: cell-based;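 on Hela CellCycMod PI 4N summarized IC50: value tracks stimulation of 4N DNA content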
[3] = assay number 14, 2N, read-out: Hela CellCycMod PI 2N summarized IC50
[4] = assay number 15, S phase, read-out: Hela CellCycMod PI S Phase summarized IC50
[5] = assay number 16, 4N, read-out: Hela CellCycMod PI 4N summarized IC50
[6] = assay number 17, MI, read-out: Hela CellCycMod PI MI summarized IC50
[7] = assay number 18, cell number, read-out: Hela CellCycMod PI Cell Number summarized IC50

C/C(=C(/OCCOc1ccc(Cl)cc1)c1ccc(Cl)cc1Cl)n1ccnc1 [NCGC00249921-01]
VEGF_ADSC\ECFC Angio CD31 TubeArea IC50/EC50 [1]: 5.8398 µM
Basal_Viability ATP DLD-1 IC50/EC50 (DLD-1): 4.1804 µM
Basal_Viability ATP SW480 IC50/EC50 (SW480): 8.4611 µM
Basal_Viability ATP HCT116 IC50/EC50 (HCT116): > 6.6667 µM
Basal_Viability ATP Colo 320 IC50/EC50 (Colo320): 5.8551 µM
Basal_Viability ATP HT-29 IC50/EC50 (HT-29): > 6.667 µM
Basal_Viability ATP RKO IC50/EC50 (RKO): > 6.6667 µM
Basal_Viability ATP SNU-C1 IC50/EC50 (SNU-C1): 2.3457 µM
VEGF_ADSC\ECFC Angio Hoechst NucArea IC50/EC50 [2]: 9.416 µM

Oc1ccc(Cl)cc1Cc1cc(Cl)ccc1O [NCGC00091325-09]
IC50 [1]: 2.32 µM
IC50 (DLD-1): 0.862 µM
IC50 (SW480): 2.5 µM
IC50 (HCT116): 1.55 µM
IC50 (Colo320): 1.21 µM
IC50 (HT-29): 4.69 µM
IC50 (RKO): 1.93 µM
IC50 (SNU-C1): 0.546 µM
IC50 [2]: 6 µM

CS(=O)(=O)O.Cc1ccc2c(c1)c1c3n2CCNC3CCC1 (centres unmarked) [NCGC00024749-04]
Hela CellCycMod PI 2N IC50/EC50 (HeLa cells; assay number 14, 2N): > 10 µM
Hela CellCycMod PI S Phase IC50/EC50 (HeLa cells; assay number 15, S phase): > 10 µM
Hela CellCycMod PI 4N IC50/EC50 (HeLa cells; assay number 16, 4N): > 10 µM
Hela CellCycMod PI MI IC50/EC50 (HeLa cells; assay number 17, MI): > 10 µM
Hela CellCycMod PI Cell Number IC50/EC50 (HeLa cells; assay number 18, cell number): > 10 µM
Basal_Viability ATP DLD-1 IC50/EC50 (DLD-1; assay number 23): > 20 µM
Basal_Viability ATP SW480 IC50/EC50 (SW480; assay number 24): > 20 µM
Basal_Viability ATP HCT116 IC50/EC50 (HCT116; assay number 25, basal): > 20 µM
Basal_Viability ATP Colo 320 IC50/EC50 (Colo320; assay number 27): > 20 µM
Basal_Viability ATP HT-29 IC50/EC50 (HT-29; assay number 28): > 20 µM
Basal_Viability ATP RKO IC50/EC50 (RKO; assay number 29): > 20 µM
Basal_Viability ATP SNU-C1 IC50/EC50 (SNU-C1; assay number 30): 2.4763 µM

O=C1C(=O)c2ccccc2C(O)=C1C1CCC(c2ccc(Cl)cc2)CC1 (centres unmarked) [NCGC00016961-06]
VEGF_ADSC\ECFC Angio CD31 TubeArea IC50/EC50 [1]: 5.1845 µM
Hela CellCycMod PI 2N IC50/EC50 (HeLa cells; assay number 14, 2N): > 10 µM
Hela CellCycMod PI 4N IC50/EC50 (HeLa cells; assay number 16, 4N): > 10 µM
Hela CellCycMod PI MI IC50/EC50 (HeLa cells; assay number 17, MI): > 10 µM
Hela CellCycMod PI Cell Number IC50/EC50 (HeLa cells; assay number 18, cell number): > 10 µM
Basal_Viability ATP DLD-1 IC50/EC50 (DLD-1; assay number 23, basal): 0.0838 µM
Basal_Viability ATP SW480 IC50/EC50 (SW480; assay number 24, basal): 0.0946 µM
Basal_Viability ATP HCT116 IC50/EC50 (HCT116; assay number 25, basal): 0.1384 µM
Basal_Viability ATP Colo 320 IC50/EC50 (Colo320; assay number 27, basal): 0.1764 µM
Basal_Viability ATP HT-29 IC50/EC50 (HT-29; assay number 28, basal): 0.4112 µM
Basal_Viability ATP RKO IC50/EC50 (RKO; assay number 29, basal): 0.1142 µM
Basal_Viability ATP SNU-C1 IC50/EC50 (SNU-C1; assay number 30, basal): 0.3675 µM
VEGF_ADSC\ECFC Angio Hoechst NucArea IC50/EC50 [2]: > 10 µM

O=C(O)C1(C(=O)O)CCC1.[NH2-].[NH2-].[Pt+2] [NCGC00263858-02]
VEGF_ADSC\ECFC Angio CD31 TubeArea IC50/EC50 [1]: > 10 µM
Basal_Viability ATP DLD-1 IC50/EC50 (DLD-1; assay number 23, basal): > 20 µM
Basal_Viability ATP SW480 IC50/EC50 (SW480; assay number 24, basal): > 20 µM
Basal_Viability ATP HCT116 IC50/EC50 (HCT116; assay number 25, basal): > 20 µM
Basal_Viability ATP Colo 320 IC50/EC50 (Colo320; assay number 27, basal): > 20 µM
Basal_Viability ATP HT-29 IC50/EC50 (HT-29; assay number 28, basal): > 20 µM
Basal_Viability ATP RKO IC50/EC50 (RKO; assay number 29, basal): > 20 µM
Basal_Viability ATP SNU-C1 IC50/EC50 (SNU-C1; assay number 30, basal): > 20 µM
VEGF_ADSC\ECFC Angio Hoechst NucArea IC50/EC50 [2]: > 10 µM

CC[n+]1c(-c2ccccc2)c2cc(N)ccc2c2ccc(N)cc21 [NCGC00091387-08]
IC50 (HeLa cells; [3]): > 10 µM
IC50 (HeLa cells; [4]): > 10 µM
IC50 (HeLa cells; [5]): > 10 µM
IC50 (HeLa cells; [6]): > 10 µM
IC50 (HeLa cells; [7]): > 10 µM
IC50 (DLD-1; assay number 23, basal): > 20 µM
IC50 (SW480; assay number 24, basal): > 20 µM
IC50 (HCT116; assay number 25, basal): 4.44 µM
IC50 (Colo320; assay number 27, basal): > 20 µM
IC50 (HT-29; assay number 28, basal): > 20 µM
IC50 (RKO; assay number 29, basal): 3.35 µM
IC50 (SNU-C1; assay number 30, basal): > 20 µM

O=c1[nH]cc(F)c(=O)[nH]1 [NCGC00015442-15]
IC50 [1]: > 10 µM
IC50 (HeLa cells; [3]): > 10 µM
IC50 (HeLa cells; [4]): > 10 µM
IC50 (HeLa cells; [5]): > 10 µM
IC50 (HeLa cells; [6]): > 10 µM
IC50 (HeLa cells; [7]): > 10 µM
IC50 (DLD-1; assay number 23, basal): > 20 µM
IC50 (SW480; assay number 24, basal): > 20 µM
IC50 (Colo320; assay number 27, basal): > 20 µM
IC50 (HT-29; assay number 28, basal): > 20 µM
IC50 (RKO; assay number 29, basal): > 20 µM
IC50 (SNU-C1; assay number 30, basal): > 20 µM
IC50 [2]: > 10 µM

Fc1ccc(C(OCCN2CCN(CCCc3ccccc3)CC2)c2ccc(F)cc2)cc1 [NCGC00015300-10]
IC50/EC50, Hela CellCycMod PI 2N (assay number 14) (HeLa cells; 2N): > 10 µM
IC50/EC50, Hela CellCycMod PI 4N (assay number 16) (HeLa cells; 4N): > 10 µM
IC50/EC50, Hela CellCycMod PI Cell Number (assay number 18) (HeLa cells; Cell Number): 3.2 µM
IC50/EC50, Hela CellCycMod PI MI (assay number 17) (HeLa cells; MI): > 10 µM
IC50/EC50, Hela CellCycMod PI S Phase (assay number 15) (HeLa cells; S Phase): > 10 µM
IC50/EC50, Basal_Viability ATP DLD-1 (assay number 23) (DLD-1; basal): 0.9032 µM
IC50/EC50, Basal_Viability ATP SW480 (assay number 24) (SW480; basal): 2.068 µM
IC50/EC50, Basal_Viability ATP HCT116 (assay number 25) (HCT116; basal): 4.8718 µM
IC50/EC50, Basal_Viability ATP Colo 320 (assay number 27) (Colo320; basal): > 20 µM
IC50/EC50, Basal_Viability ATP HT-29 (assay number 28) (HT-29; basal): 1.4851 µM
IC50/EC50, Basal_Viability ATP RKO (assay number 29) (RKO; basal): 0.113 µM
IC50/EC50, Basal_Viability ATP SNU-C1 (assay number 30) (SNU-C1; basal): 1.817 µM
